From PMC9109057, “Designing Self‐Assembling Chimeric Peptide Nanoparticles with High Stability for Combating Piglet Bacterial Infections” (Advanced Science, 2022)
Converted amounts (≈) assume the structure as drawn. Where a SMILES comes first, the peptide text is derived from it. [ ]: non-standard residue; d: D form. The star is where a group is joined. PEG8 = NCCOCCOCCOCCOCCOCCOCCOCCOCCC(=O)O; Myristoyl = CCCCCCCCCCCCCC(=O)*

Key:
S. aureus CVCC1882 = format: cell-based
Description: (§1) The MICs of the self‐assembling peptide nanoparticles were determined using the modified broth microdilution method.^[ [46] ^] The bacteria were resuspended in a logarithmic growth phase in a Mueller–Hinton broth (MHB) medium, the optical density (OD) at a wavelength of 600 nm was adjusted to ≈ 0.4, and the suspension was diluted 1000 times with MHB. In a 96‐well plate, the peptides were diluted via multiple dilutions using a 0.2% bovine serum albumin solution to a concentration range of 0.25 × 10^−6–128 × 10^−6 M. Subsequently, the diluted bacterial solution and peptide solution were mixed in a 1:1 ratio in a 96‐well plate and incubated at 37 °C. After 18–24 h, the absorbance at 492 nm was measured using a microplate reader. The MIC value was defined as the lowest peptide nanoparticle concentration without bacterial growth. Each test was performed in duplicate and repeated three times.

P. aeruginosa 27853 = format: cell-based
Description: as §1

S.epidermidis 49134 = format: cell-based
Description: as §1

E. coli ATCC25922 = format: cell-based
Description: as §1

S. aureus ATCC6538 = format: cell-based
Description: as §1

porcine red blood cells = format: cell-based; settings: pH 7.4
Description: Fresh porcine red blood cells were used to study the hemolysis of self‐assembled peptide nanoparticles.^[ [48] ^] The red blood cells were collected by washing with PBS (10 × 10^−3 M, pH 7.4) until the supernatant became clear. A 10% v/v red blood cell suspension was prepared with PBS, and peptide nanoparticles with a final concentration of 128 × 10^−6 M were added to the suspension (1 mL). After gentle incubation at 37 °C for 2 h, the cells were centrifuged at 6000 rpm for 5 min, and the absorbance of the supernatant was measured at 570 nm. Two red blood cell suspensions (one containing 0.2% Triton X‐100, the other without peptide nanoparticles) were used as positive and negative controls, respectively. The hemolysis of each sample was calculated, and images were collected.

HEK293T cells = experiment: Cytotoxicity assay (MTT; SYTO9/PI live/dead imaging); format: cell-based, Human; settings: 64 × 10^−6 M, 2 h, 37 °C, laser confocal microscope
Description: 3‐(4,5‐dimethylthiazol‐2‐yl)‐2,5‐diphenyltetrazolium bromide (MTT) dye was used to determine the cytotoxicity of the peptide nanoparticles.^[ [47] ^] Human embryonic kidney (HEK) 293T cells were seeded into 96‐well plates at a concentration of (1–2) × 10^5 cells per well in high glucose DMEM and placed in a cell incubator (5% CO2, 37 °C) for 24 h. After discarding the medium, peptides (100 µL) were added with a concentration range of 0.125 × 10^−6–64 × 10^−6 M to wells 1–10 of a 96‐well plate and incubated at 37 ℃ for 2 h. Samples without peptides were used as positive controls and samples without cells were used as negative controls. Subsequently, 20 µL of MTT (5 mg mL^−1) was added to each well before another 4 h of incubation. After discarding the supernatant, 150 µL of dimethyl sulfoxide was added to each well of the 96‐well plate, to fully dissolve the crystals; then, the absorbance at a wavelength of 570 nm was measured using a microplate reader. Each test was performed in duplicate and repeated three times. Cell viability was expressed as a percentage. For laser confocal microscope samples, after the peptides (the final concentration is 64 × 10^−6 M) were added to a 96‐well plate, the final concentration of 5 × 10^−6 M SYTO9 and 20 µg mL^−1 PI dye was added to a 96‐well plate, and incubated at 37 ℃ for 2 h. Cells were imaged using a laser scanning confocal microscope. A sample without peptide nanoparticles was used as a control.

C57BL/6 mice = settings: mouse, in vivo, ip
Description: Healthy female C57BL/6 mice (weight is about 20 g) were randomly divided into five groups with six replicates per group. Mice were acclimated for 3 d in an environment of suitable temperature (20–24 °C), humidity (50–60%), and alternating light and dark. During the assay, the first group of mice was intraperitoneally injected with 150 µL of saline (once daily), and the second to fifth groups of mice were intraperitoneally injected with 150 µL nanoparticles NPs1 or NPs2 at doses of 15 and 30 mg kg^−1 (once daily). Continuous injection was given for 7 days. At 12 h after the last administration, the mice were euthanized using mild ether anesthesia. Blood samples were taken from the mice's orbital vein, and serum was analyzed using an automatic biochemical analyzer. The kidneys and livers of the mice were taken, weighed, and fixed with 4% paraformaldehyde; then, histological analysis was performed via H&E staining.

pepsin = molecular target: T1, pepsin (Sus scrofa, UniProt P00791); experiment: Protease stability assay (MIC and RP-HPLC read-out); format: in vitro ADME; settings: for Antibacterial activity (MIC) after treatment with pepsin: equal volumes of peptide 2560 × 10^−6 M and pepsin 8 mg mL^−1, 37 °C, 1 h, MIC vs E. coli ATCC25922 and S. aureus ATCC6538, n = 6; for RP-HPLC peak shape and area after treatment with pepsin: pepsin 4 or 8 mg mL^−1, 37 °C, 8 h vs 0 h control, C18 RP-HPLC, UV 214 nm
T1 construct: purchased Sigma-Aldrich (China)
T1 sequence (P00791 60-385): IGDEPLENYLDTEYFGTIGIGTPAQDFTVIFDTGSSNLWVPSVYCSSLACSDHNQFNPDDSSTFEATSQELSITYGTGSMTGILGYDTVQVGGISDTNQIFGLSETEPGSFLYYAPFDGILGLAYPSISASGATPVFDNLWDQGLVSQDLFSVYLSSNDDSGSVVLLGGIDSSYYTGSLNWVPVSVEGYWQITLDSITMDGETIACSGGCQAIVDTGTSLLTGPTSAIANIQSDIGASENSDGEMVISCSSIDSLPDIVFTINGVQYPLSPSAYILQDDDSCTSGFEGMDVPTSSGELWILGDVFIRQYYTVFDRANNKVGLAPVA
Description: (§2) An equal volume of peptide nanoparticles (2560 × 10^−6 M) and pepsin, trypsin, or chymotrypsin (8 mg mL^−1) was mixed and incubated at 37 °C for 1 h. Then, the MICs of peptide nanoparticles against E. coli ATCC25922 and S. aureus ATCC6538 were measured using the above‐mentioned method. Each test was performed in duplicate and repeated three times.
(§3) For RP‐HPLC, an equal volume of peptide nanoparticles (2560 × 10^−6 M) and pepsin, trypsin, or chymotrypsin (4 or 8 mg mL^−1) was mixed. The mixed solution was incubated at 37 °C for a predetermined time (0, 2, 4, or 8 h), and the protease was completely inactivated by heating in boiling water at 100 °C for 5 min. The concentration of peptide nanoparticles in the samples was then diluted to 256 × 10^−6 M, and the samples were analyzed using an RP‐HPLC system equipped with an Acchorm Unitary C18 column (5 µm, 100 Å, 4.6 mm × 250 mm). A gradient of 42% to 96% acetonitrile in water with 0.1% trifluoroacetic acid was used as the mobile phase at a flow rate of 0.8 mL min^−1. UV detection was performed at a wavelength of 214 nm.

chymotrypsin = molecular target: T2, chymotrypsin (Bos taurus, UniProt P00766); experiment: as above; format: in vitro ADME; settings: equal volumes of peptide 2560 × 10^−6 M and chymotrypsin 8 mg mL^−1, 37 °C, 1 h; MIC vs E. coli ATCC25922 and S. aureus ATCC6538; n = 6
T2 construct: purchased Sigma-Aldrich (China)
Description: as §2, §3

trypsin = experiment: as above; format: in vitro ADME; settings: equal volumes of peptide 2560 × 10^−6 M and trypsin 8 mg mL^−1, 37 °C, 1 h; MIC vs E. coli ATCC25922 and S. aureus ATCC6538; n = 6
Description: as §2, §3

C. rodentium DBS100 = format: cell-based
Description: as §1

| Compound | MIC S. aureus 1882 (S. aureus CVCC1882) [µM] | MIC P. aeruginosa 27853 (P. aeruginosa 27853) [µM] | MIC S.epidermidis 49134 (S.epidermidis 49134) [µM] | MIC E. coli 25922 (E. coli ATCC25922) [µM] | MIC S. aureus 6538 (S. aureus ATCC6538) [µM] | MHC (porcine red blood cells) | Live/dead (SYTO9/PI) imaging of HEK293T cells (HEK293T cells) | Side effects on mice (C57BL/6 mice) | Antibacterial activity (MIC) after treatment with pepsin (pepsin) | RP-HPLC peak shape and area after treatment with pepsin (pepsin) | Antibacterial activity (MIC) after treatment with chymotrypsin (chymotrypsin) | Antibacterial activity (MIC) after treatment with trypsin (trypsin) | MIC C. rodentium DBS100 (C. rodentium DBS100) [µM] |
| --- | --- | --- | --- | --- | --- | --- | --- | --- | --- | --- | --- | --- | --- |
| CCCCCCCCCCCCCC(=O)N1CCC[C@H]1C(=O)N[C@@H](Cc1ccccc1)C(=O)N1CCC[C@H]1C(=O)N[C@@H](Cc1ccccc1)C(=O)N1CCC[C@H]1C(=O)N[C@@H](Cc1ccccc1)C(=O)N1CCC[C@H]1C(=O)N[C@@H](CCCCN)C(=O)N1CCC[C@H]1C(=O)N[C@@H](CCCCN)C(=O)N1CCC[C@H]1C(=O)N[C@@H](CCCCN)C(=O)N1CCC[C@H]1C(=O)N[C@@H](CCCCN)C(=O)N1CCC[C@H]1C(=O)N[C@@H](CCCCN)C(=O)N1CCC[C@H]1C(=O)N[C@@H](CCCCN)C(=O)N1CCC[C@H]1C(=O)NCCOCCOCCOCCOCCOCCOCCOCCOCCC(N)=O [NPs3] (Myristoyl-PFPFPFPKPKPKPKPKPKP[PEG8]-NH2) | 14.7 ± 3.0 (≈ 41.6 µg/mL) | 21.3 ± 7.5 (≈ 60.3 µg/mL) | 9.3 ± 3.0 (≈ 26.3 µg/mL) | 9.3 ± 3.0 (≈ 26.3 µg/mL) | 7.3 ± 1.5 (≈ 20.7 µg/mL) | > 128 | only led to a few cell deaths | – | – | – | – | – | – |
| CCCCCCCCCCCCCC(=O)N1CCC[C@H]1C(=O)N[C@@H](Cc1ccccc1)C(=O)N1CCC[C@H]1C(=O)N[C@@H](Cc1ccccc1)C(=O)N1CCC[C@H]1C(=O)N[C@@H](Cc1ccccc1)C(=O)N1CCC[C@H]1C(=O)N[C@@H](CCCCN)C(=O)N1CCC[C@H]1C(=O)N[C@@H](CCCCN)C(=O)N1CCC[C@H]1C(=O)N[C@@H](CCCCN)C(=O)N1CCC[C@H]1C(=O)N[C@@H](CCCCN)C(=O)N1CCC[C@H]1C(=O)N[C@@H](CCCCN)C(=O)N1CCC[C@H]1C(=O)N[C@@H](CCCCNC(=O)CCOCCOCCOCCOCCOCCOCCOCCOCCN)C(=O)N1CCC[C@H]1C(N)=O [NPs2] (Myristoyl-PFPFPFPKPKPKPKPKPK(PEG8)P-NH2) | 10.0 ± 4.5 (≈ 28.3 µg/mL) | 13.3 ± 3.8 (≈ 37.7 µg/mL) | 9.3 ± 3.0 (≈ 26.3 µg/mL) | 8 (≈ 22.7 µg/mL) | 6.7 ± 1.9 (≈ 19 µg/mL) | > 128 | only led to a few cell deaths | negligible | remained essentially unchanged | remained intact | remained essentially unchanged | remained essentially unchanged | 6.7 ± 1.9 (≈ 19 µg/mL) |
| CCCCCCCCCCCCCC(=O)N1CCC[C@H]1C(=O)N[C@@H](Cc1ccccc1)C(=O)N1CCC[C@H]1C(=O)N[C@@H](Cc1ccccc1)C(=O)N1CCC[C@H]1C(=O)N[C@@H](Cc1ccccc1)C(=O)N1CCC[C@H]1C(=O)N[C@@H](CCCCNC(=O)CCOCCOCCOCCOCCOCCOCCOCCOCCN)C(=O)N1CCC[C@H]1C(=O)N[C@@H](CCCCN)C(=O)N1CCC[C@H]1C(=O)N[C@@H](CCCCN)C(=O)N1CCC[C@H]1C(=O)N[C@@H](CCCCN)C(=O)N1CCC[C@H]1C(=O)N[C@@H](CCCCN)C(=O)N1CCC[C@H]1C(=O)N[C@@H](CCCCN)C(=O)N1CCC[C@H]1C(N)=O [NPs1] (Myristoyl-PFPFPFPK(PEG8)PKPKPKPKPKP-NH2) | – | 12.0 ± 4.0 (≈ 34 µg/mL) | – | 9.3 ± 3.0 (≈ 26.3 µg/mL) | 5.3 ± 1.9 (≈ 15 µg/mL) | > 128 | only led to a few cell deaths | negligible | remained essentially unchanged | remained intact | remained essentially unchanged | remained essentially unchanged | – |
